From patent US20230227466A1, “SUBSTITUTED THIENOPYRIMIDINES THAT INTERACT WITH THE RAS SUPERFAMILY FOR THE TREATMENT OF CANCERS, INFLAMMATORY DISEASES, RASOPATHIES, AND FIBROTIC DISEASE” (SHY Therapeutics, LLC, priority 2020, published 2023)
Read-outs that look alike come from different tables or passages of the source.

Key:
KRas G12C mutant = target: T1, KRas G12C mutant (Homo sapiens, UniProt P01116, G12C); test: Ras GTP binding domain inhibition assay (labeled-GTP competition, cell-free)
T1 construct: made in house
From the text: (§1) This is a competitive binding assay. It involves the immobilization of a protein on solid phase, interaction with a small molecule drug candidate, and then competitive binding with a labeled native GTP or GDP ligand.
(§2) In theory, the assay is suitable for use with any GTP or GDP binding protein.
(§3) The following method was developed as specific assay for the following proteins: KRas wild type, KRas Q61H mutant, KRas G12C mutant, KRas G12D mutant, Rac-1, and Rho-A.
(§4) The small GTPases proteins: KRas wild type. KRas Q61H mutant, KRas G12C mutant, KRas G12D mutants, Rac-1, and Rho-A were expressed as His-tagged proteins. In addition, the Guanosine nucleotide Exchange Factor (GEF) Sos protein (residues 556-1049) was expressed as a His-tagged protein. In cells, the guanine nucleotide exchange factor Sos protein promotes activation of Ras proteins by stimulating an exchange of GDP for GTP. The inclusion of Sos to the Ras GTP binding domain inhibition assay may be considered as an alternative representation of physiological cellular conditions for evaluating the inhibitory activity of some of the tested small molecules.
(§5) For the assay, all purified small GTPases proteins were diluted in Buffer-I or Buffer-II to a final concentration of 10-30 μg/mL. 200 μL of each diluted protein was added to a nickel-coated 96-well plate and incubated overnight at 4° C. Then the protein solution was discarded and 200 μL of Buffer-I or Buffer-II was added to each well in the presence of 1% DMSO. Compounds to be tested were added to the protein-coated wells at final concentration of 20 μM, and incubated for 3 hours at room temperature with and without 10-30 μg/mL of Sos added to the final hour of the incubation. When performing IC50 measurements a serial dilution of all tested concentrations was added. Then Cy3-GTP or Cy5-GTP was added to each well to a final concentration of 100 nM. The labeled GTP was incubated for 45 minutes at room temperature. Following GTP incubation, wells were washed 3× in Buffer-I or Buffer-II and 200 μL of Buffer-I or Buffer-II was added to each well. Following washes, the amount of bound labeled-GTP was measured using a SpectraMax M3 (Molecular Devices).

KRas G12D mutant = target: T2, KRas G12D mutant (Homo sapiens, UniProt P01116, G12D); test: as above
T2 construct: made in house
From the text: as §1, §2, §3, §4, §5

[1] = tested on: Akt phosphorylation in Panc-1 cells; test: Western AKT cell-based phosphorylation assay; set-up: species or system human; conditions: at 10 μM, values in brackets < > are activation %, not inhibition
Protocol: Human Tumor-Derived Pancreatic Cancer Cell Line Panc-1 was Purchased from
American Type Culture Collection and grown in complete DMEM-High Glucose supplemented with penicillin (100 U/mL), streptomycin (100 μg/mL), and 10% heat-inactivated FBS at 37° C. in a humidified incubator with 5% CO2.
Method: Cells were plated at 350000 cells/well density in a 12-well plate, allowed 3 hours to adhere to the plate, then starved in the appropriate medium in the presence of 0.5% FBS overnight. The small molecules to be tested were added to the cells in the final concentration of 10 μM in the presence of 0.3% DMSO for 6 hours incubation at 37° C. Next, cells were stimulated with 1.5 ng/ml EGF for 15 minutes then cells were lysed with lysis buffer containing 1% Triton X-100, EDTA, and Halt™ Protease & Phosphatase Inhibitor Cocktail (Thermo Scientific). Protein concentration was assessed by BCA protein assay (Thermo Scientific). Phosphorylation level of Akt was determined by western blot.
Western blot protocol: Equal amounts of protein (15-50 μg) were separated by SDS-PAGE and transferred to nitrocellulose membranes (Invitrogen by Thermo Fisher Scientific). The membrane was stained with Ponceau S Stain (Boston BioProducts) to verify uniform protein loading. Membranes were blocked with 10% milk and phosphorylation levels of Akt were assessed by incubating overnight at 4° C. with anti-phospho-Akt (Ser473) antibody (Cell Signaling) followed by HRP-conjugated secondary antibody (Jackson Immunoresearch, West Grove, Pa.). Bands were incubated in Amersham ECL Prime Western Blotting Detection Reagent (GE Healthcare) and visualized using the ChemiDoc MP imaging system (Bio-Rad).

[2] = tested on: MIA-PaCa-2 pancreatic cancer cell line (KRAS G12C); test: Cell proliferation assay (CellTiter 96 Aqueous One); assay type: cell-based; conditions: Homo sapiens; for IC50: MIA PaCa-2, MIA PaCa-2; for inhibition at 10 µM: MIA PaCa-2, read-out: % inh cell proliferation (10 μM) in MIA PaCa-2
Protocol: Cell lines: Human tumor-derived cell lines were purchased from American Type Culture Collection. Human tumor-derived pancreatic cancer cell line MIA-PACA2 (having a KRAS G12C mutation) and Panc-1 (having a KRAS G12D mutation), and Human non-small cell lung cancer (NSCLC) cell line A549 (having a KRAS G12S mutation) were grown in complete DMEM-High Glucose. Human colon cancer cell line SW-620 (having a KRAS G12V mutation) was grown in RPMI. All cell lines were supplemented with penicillin (100 U/mL), streptomycin (100 μg/mL), and 10% heat-inactivated FBS at 37° C. in a humidified incubator with 5% CO2.
Method: Cells were plated at 2000 to 5000 cells/well density in 96-wells plate and cultured overnight. Small molecules to be tested were added to the cells in the final concentration of 10 μM in the presence of 0.3% DMSO and 10% FBS, and incubated for 2-4 days at 37° C. in a humidified incubator with 5% CO2. For IC50 value determination, serial dilutions of compounds were added to cells under the same conditions.
Assay: At the end of the incubation period, cell viability was measured using the CellTiter 96® Aqueous One Solution Cell Proliferation Assay according to manufacturer specifications (Promega, Madison, Wis.). The percentage of small molecules inhibition of cellular proliferation was calculated from raw data.

KRas wild type = KRas wild type (Homo sapiens, UniProt P01116); test: Ras GTP binding domain inhibition assay (labeled-GTP competition, cell-free); set-up: made in house
From the text: as §1, §2, §3, §4, §5

Rac-1 = Rac-1 (Homo sapiens, UniProt P63000); test: as above; set-up: made in house
From the text: as §1, §2, §3, §4, §5

Rho-A = Rho-A (Homo sapiens, UniProt P61586); test: as above; set-up: made in house
From the text: as §1, §2, §3, §4, §5

[3] = with SOS, read-out: KRas G12C mutant + SOS: % inh.
[4] = without SOS, read-out: KRas G12C mutant: % inh.
[5] = with SOS, read-out: KRas G12D mutant + SOS: % inh.
[6] = without SOS, read-out: KRas G12D mutant: % inh.
[7] = with SOS, read-out: KRas wild type + SOS: % inh.
[8] = without SOS, read-out: KRas wild type: % inh.
[9] = with SOS, read-out: Rac-1 + SOS: % inh.
[10] = without SOS, read-out: Rac-1: % inh.
[11] = with SOS, read-out: Rho-A + SOS: % inh.
[12] = without SOS, read-out: Rho-A: % inh.

| Compound | inhibition at 20 µM (KRas G12C mutant; [3]) [%] | inhibition at 20 µM (KRas G12C mutant; [4]) [%] | inhibition at 20 µM (KRas G12D mutant; [5]) [%] | inhibition at 20 µM (KRas G12D mutant; [6]) [%] | % inh of AKT phosphorylation in PANC-1 [1] | IC50 [2] [µM] | inhibition at 10 µM [2] [%] | inhibition at 20 µM (KRas wild type; [7]) [%] | inhibition at 20 µM (KRas wild type; [8]) [%] | inhibition at 20 µM (Rac-1; [9]) [%] | inhibition at 20 µM (Rac-1; [10]) [%] | inhibition at 20 µM (Rho-A; [11]) [%] | inhibition at 20 µM (Rho-A; [12]) [%] |
| --- | --- | --- | --- | --- | --- | --- | --- | --- | --- | --- | --- | --- | --- |
| COCCn1ccnc1-c1nc(N[C@@H]2CC[C@H](OC)C2)c2ccsc2n1 (racemic) [Compound 8, Rac-N-((1R,3S)-3-methoxycyclopentyl)-2-(1-(2-methoxyethyl)-1H-imidazol-2-yl)thieno[2,3-d]pyrimidin-4-amine] | 76 to 100 | 76 to 100 | 76 to 100 | 76 to 100 | 0 (0% inhibition) | > 10 | 26 to 50 | 76 to 100 | 76 to 100 | 76 to 100 | 76 to 100 | 76 to 100 | 76 to 100 |
| CO[C@H]1CC[C@@H](Nc2nc(-c3nccn3C)nc3sccc23)C1 (racemic) [Compound 10, Rac-N-((1R,3S)-3-methoxycyclopentyl)-2-(1-methyl-1H-imidazol-2-yl)thieno[2,3-d]pyrimidin-4-amine] | 76 to 100 | 76 to 100 | 51 to 75 | 51 to 75 | 0 (0% inhibition) | > 10 | 26 to 50 | 76 to 100 | 51 to 75 | 76 to 100 | 76 to 100 | 76 to 100 | 76 to 100 |
| CO[C@H]1CC[C@@H](Nc2nc(C(N)=O)nc3sccc23)C1 (racemic) [Compound 11, Rac-4-(((1R,3S)-3-methoxycyclopentyl)amino)thieno[2,3-d]pyrimidine-2-carboxamide] | 1 to 25 | 1 to 25 | 0 | 1 to 25 | 0 (0% inhibition) | > 10 | 1 to 25 | 1 to 25 | 0 | 0 | 0 | 1 to 25 | 1 to 25 |
| CO[C@H]1CC[C@@H](Nc2nc(C(=O)N3CCOCC3)nc3sccc23)C1 (racemic) [Compound 12, Rac-(4-(((1R,3S)-3-methoxycyclopentyl)amino)thieno[2,3-d]pyrimidin-2-yl)(morpholino)methanone] | 1 to 25 | 1 to 25 | 0 | 1 to 25 | 0 (0% inhibition) | > 10 | 1 to 25 | 1 to 25 | 0 | 1 to 25 | 0 | 1 to 25 | 1 to 25 |
| CO[C@H]1CC[C@@H](Nc2nc(C(=O)NC(C)C)nc3sccc23)C1 (racemic) [Compound 13, Rac-N-isopropyl-4-(((1R,3S)-3-methoxycyclopentyl)amino)thieno[2,3-d]pyrimidine-2-carboxamide] | 0 | 0 | 0 | 1 to 25 | 0 (0% inhibition) | > 10 | 0 | 1 to 25 | 0 | 0 | 1 to 25 | 1 to 25 | 1 to 25 |
| COCCNC(=O)c1nc(N[C@@H]2CC[C@H](OC)C2)c2ccsc2n1 (racemic) [Compound 14, rac-4-(((1R,3S)-3-Methoxycyclopentyl)amino)-N-(2-methoxyethyl)thieno[2,3-d]pyrimidine-2-carboxamide] | 0 | 0 | 1 to 25 | 1 to 25 | 0 (0% inhibition) | > 10 | 0 | 0 | 0 | 0 | 0 | 1 to 25 | 1 to 25 |
| CO[C@H]1CC[C@@H](Nc2nc(C(=O)Nc3ccccc3)nc3sccc23)C1 (racemic) [Compound 15, rac-4-(((1R,3S)-3-Methoxycyclopentyl)amino)-N-phenylthieno[2,3-d]pyrimidine-2-carboxamide] | 0 | 1 to 25 | 0 | 0 | 0 (0% inhibition) | > 10 | 1 to 25 | 0 | 1 to 25 | 0 | 0 | 0 | 0 |
| CO[C@H]1CC[C@@H](Nc2nc(C(=O)Nc3ccccn3)nc3sccc23)C1 (racemic) [Compound 16, rac-4-(((1R,3S)-3-Methoxycyclopentyl)amino)-N-(pyridin-2-yl)thieno[2,3-d]pyrimidine-2-carboxamide] | 1 to 25 | 1 to 25 | 1 to 25 | 1 to 25 | 0 (0% inhibition) | > 10 | 1 to 25 | 0 | 1 to 25 | 0 | 1 to 25 | 1 to 25 | 0 |
